Blank lines part the entries; values can stand above or below the molecule they belong to.
Key:
[1] = Immersion of two-cell stage zebrafish embryos (10 µM), spatiotemporal fluorescence imaging and non-compartmental AUC; format: in vivo, zebrafish (Danio rerio); conditions: immersion 10 µM; for intrabody accumulation on longer incubations: 24–72 h; for AUC-RoB IMM (AUC0.25–72h): rest of body (non-yolk); for AUC-RoB IMM (AUC0.25–72h) / AUC-WB IMM (AUC0.25–72h) / AUC-Yolk IMM (AUC0.25–72h): 0.25 to 72 h; for AUC-WB IMM (AUC0.25–72h): whole body
Method: Immersion treatment: zebrafish embryos at the two-cell stage were immersed in Danieau’s medium containing the compound. A compound concentration of 10 µM and DMSO concentration of 0.1% (v/v) in a volume of 5 mL was used per well (6-well-plates). At 72 h, the zebrafish medium containing the compound was removed, and the animals rinsed 3 × with Danieau’s medium. Next, the embryos were kept for another 48 h in Danieau’s medium supplemented with DMSO (0.1%, v/v) in the absence of compound. In the case of control experiments, the embryos were exposed to Danieau’s medium supplemented with DMSO (0.1%, v/v).
Animals were kept in dark conditions in an incubator at 28.5 °C for defined time-periods (0.25, 1, 3, 6, 24, 48, 72, 96, and 120 h) before image analysis in a dark room. To acquire images, a Leica MZ10F fluorescent stereomicroscope (Leica Microsystems Inc., Buffalo Grove, IL, USA) with a 4.0× planapochromatic objective (10447243) was used, equipped with a Digital Color Camera Leica DFC310 FX (Software LAS 4.13, Leica Microsystems Inc., Buffalo Grove, IL, USA). Filter sets were GFP 10446222 in the case of compound FAMA, dSRED 10447079 in the cases of S-CY3A, CY3A and TAMRA, and CY5 10446366 in the cases of S-CY5.5A and S-CY5A. Previous to fluorescence imaging, the embryos were dechorionated (up to 72 hpf) and immobilized by hypothermia, rinsed three times with Danieau’s medium, and positioned latero-lateral (right lateral recumbency) on a single cavity glass slide and covered by a drop of agarose (0.1%). Then, using MetaMorph (Microscopy Automation and Image Analysis Software V.7.8.00, Molecular Devices, LLC., San Jose, CA, USA) and by manual delineation of the whole-body (WB) (up to 120 h) and yolk sac contours (up to 72 h) of the zebrafish embryos the fluorescence in the selected area was quantified as integrated fluorescence intensity (RFU). The RFU values of the non-yolk compartment (i.e., RoB: rest of body) was assessed by subtracting the yolk results from the corresponding integrated fluorescence intensities found in the WB.
(§1) In order to determine the degree of tissue exposure following administration of the fluorescent compounds, we calculated the AUC as the pharmacokinetic parameter of the non-compartmental analysis. The area under a plot of the fluorescence intensity (RFUT) versus time is referred to as the area under the (zero moment) curve AUC. RFUT represents the relative amount of compound present in the ZFE by measuring the integrated fluorescence intensity of delineated contours in fluorescence images (Figure 2). The AUC was then determined by summing the incremental area of subsequent trapezoids. […] In some cases, observations were censored and excluded from the analysis, due to possible fluorescence quenching effect of compounds that remains at the site of the intrayolk microinjection.

[2] = design: method as in PMID 34108572; conditions: experimentally determined before; cited from earlier work
[3] = Intrayolk (IY) microinjection of two-cell stage zebrafish embryos (2 mg/kg), spatiotemporal fluorescence imaging and non-compartmental AUC; format: in vivo, zebrafish (Danio rerio); conditions: for accumulation in the gastrointestinal system / localization of the dye after IY microinjection: IY microinjection 2 mg/kg; for accumulation in the gastrointestinal system: after 96 hpf; for RD (IY), Relative Distribution: ratio of AUCRoB to AUCWB after microinjection into the yolk (2 mg/kg), 0.25–72 h; for localization of the dye after IY microinjection: first hours post injection
Description: Intrayolk microinjection (IY): zebrafish embryos at the two-cell stage were positioned in a Petri dish at room temperature. […] Needles were filled with compounds dissolved in the vehicle (DMSO/saline (1:1)), placed under the microscope, and using forceps, the tip was cut off in a manner to allow for a consistent volume to be injected. Afterwards, the embryos were transferred to 6-well plates. Control embryos were exposed to vehicle only. […] Previous to fluorescence imaging, the embryos were dechorionated (up to 72 hpf) and immobilized by hypothermia, rinsed three times with Danieau's medium, and positioned latero-lateral (right lateral recumbency) on a single cavity glass slide and covered by a drop of agarose (0.1%). Then, using MetaMorph (Microscopy Automation and Image Analysis Software V.7.8.00, Molecular Devices, LLC., San Jose, CA, USA) and by manual delineation of the whole-body (WB) (up to 120 h) and yolk sac contours (up to 72 h) of the zebrafish embryos the fluorescence in the selected area was quantified as integrated fluorescence intensity (RFU). The RFU values of the non-yolk compartment (i.e., RoB: rest of body) was assessed by subtracting the yolk results from the corresponding integrated fluorescence intensities found in the WB. In order to determine the degree of tissue exposure following administration of the fluorescent compounds, we calculated the AUC as the pharmacokinetic parameter of the non-compartmental analysis. The area under a plot of the fluorescence intensity (RFUT) versus time is referred to as the area under the (zero moment) curve AUC. RFUT represents the relative amount of compound present in the ZFE by measuring the integrated fluorescence intensity of delineated contours in fluorescence images (Figure 2). The AUC was then determined by summing the incremental area of subsequent trapezoids.

[4] = Relative Exposure (RE10/2/72h): ratio of AUC immersion to AUC IY microinjection; format: in vivo, zebrafish (Danio rerio)
Method: We then assessed by non-compartmental analysis the area from 0.25 to 72 h post exposure under the concentration–time curve (AUC0.25–72h) (Table 1) that represents well the relative tissue exposure to fluorescent compound across time. These absolute fluorescence intensities however cannot be comscriptpared across compounds as they depend critically on the respective quantum yields of the compounds and the device settings. To be able to compare the PK behavior of the compounds following different administration routes, we calculated the fluorescence-independent pharmacokinetic parameter Relative Exposure (RE10/2/72h), i.e., the ratio of AUC0.25–72h immersion (10 µM) to AUC0.25–72h IY microinjection (2 mg/kg). Separate RE values were calculated based on the whole body (WB), rest-of-body (RoB) and yolk fluorescence measurements (Table 2).
as §1
We further calculated the Relative Exposure (RE10/2) by comparing the […] after IY microinjection (2 mg/kg), as defined in Equation (2): (2) RE10/2/h=AUCImm/AUCInj.

[5] = rest of body (non-yolk), intrayolk microinjection 2 mg/kg, 0.25 to 72 h
[6] = whole body, intrayolk microinjection 2 mg/kg, 0.25 to 72 h
[7] = yolk, intrayolk microinjection 2 mg/kg, 0.25 to 72 h

Molecule: C#CCNC(=O)CCCCCN1C(=CC=CC2=[N+](C)c3ccccc3C2(C)C)C(C)(C)c2ccccc21.[Cl-] [CY3A, Cyanine 3]
- intrabody accumulation on longer incubations [1]: further intrabody accumulation
- intrabody accumulation after one hour of immersion followed by dechorionation ([1]; 1 h, dechorionated and rinsed): fast intrabody accumulation
- AUC-RoB IMM (AUC0.25–72h) [1]: 6.41 RFU × 10^7
- AUC-WB IMM (AUC0.25–72h) [1]: 20.9 RFU × 10^7
- AUC-Yolk IMM (AUC0.25–72h) [1]: 14.6 RFU × 10^7
- Log D [2]: 1.73
- accumulation in the gastrointestinal system [3]: accumulation
- RD (IY), Relative Distribution [3]: 0.17
- AUC-RoB IY (AUC0.25–72h) [3, 5]: 3.21 RFU × 10^7
- AUC-WB IY (AUC0.25–72h) [3, 6]: 18.9 RFU × 10^7
- AUC-Yolk IY (AUC0.25–72h) [3, 7]: 15.7 RFU × 10^7
- RE-WB (Relative Exposure RE-WB10/2/72h) ([4]; zebrafish, in vivo): 1.11

Molecule: C#CCNC(=O)c1ccc(-c2c3ccc(=[N+](C)C)cc-3oc3cc(N(C)C)ccc23)c(C(=O)[O-])c1 (single isomer, unassigned) [TAMRA]
- intrabody accumulation on longer incubations [1]: further intrabody accumulation
- AUC-RoB IMM (AUC0.25–72h) [1]: 2.78 RFU × 10^7
- AUC-WB IMM (AUC0.25–72h) [1]: 7.76 RFU × 10^7
- AUC-Yolk IMM (AUC0.25–72h) [1]: 4.98 RFU × 10^7
- Log D [2]: 0.46
- accumulation in the gastrointestinal system [3]: accumulation
- RD (IY), Relative Distribution [3]: 0.28
- AUC-RoB IY (AUC0.25–72h) [3, 5]: 11.2 RFU × 10^7
- AUC-WB IY (AUC0.25–72h) [3, 6]: 40.4 RFU × 10^7
- AUC-Yolk IY (AUC0.25–72h) [3, 7]: 29.1 RFU × 10^7
- RE-RoB (Relative Exposure RE-RoB10/2/72h) ([4]; rest of body, AUC0.25–72h immersion (10 µM) / AUC0.25–72h IY microinjection (2 mg/kg)): 0.25
- RE-WB (Relative Exposure RE-WB10/2/72h) ([4]; whole body, AUC0.25–72h immersion (10 µM) / AUC0.25–72h IY microinjection (2 mg/kg)): 0.19
- RE-Yolk (Relative Exposure RE-Yolk10/2/72h) ([4]; yolk, AUC0.25–72h immersion (10 µM) / AUC0.25–72h IY microinjection (2 mg/kg)): 0.17

Molecule: C#CCNC(=O)c1ccc2c(c1)C(=O)OC21c2ccc(O)cc2Oc2cc(O)ccc21 [FAMA, Fam A, 5-Isomer]
- AUC-RoB IMM (AUC0.25–72h) [1]: 0.84 RFU × 10^7
- AUC-WB IMM (AUC0.25–72h) [1]: 1.17 RFU × 10^7
- AUC-Yolk IMM (AUC0.25–72h) [1]: 0.36 RFU × 10^7
- Log D [2]: −0.14
- accumulation in the gastrointestinal system [3]: accumulation
- RD (IY), Relative Distribution [3]: 0.32
- AUC-RoB IY (AUC0.25–72h) [3, 5]: 6.93 RFU × 10^7
- AUC-Yolk IY (AUC0.25–72h) [3, 7]: 14.9 RFU × 10^7
- RE-WB (Relative Exposure RE-WB10/2/72h) ([4]; zebrafish, in vivo): 0.05

Molecule: Rhodamine 6g 6-Isomer [Compound R6GA]
- Log D [2]: 1.07
- AUC-RoB IY (AUC0.25–72h) ([3]; zebrafish, in vivo, 2 mg/kg): 1.48 RFU × 10^7
- AUC-WB IY (AUC0.25–72h) ([3]; zebrafish, in vivo, 2 mg/kg): 5.76 RFU × 10^7
- AUC-Yolk IY (AUC0.25–72h) ([3]; zebrafish, in vivo, 2 mg/kg): 4.29 RFU × 10^7
- RE-WB (Relative Exposure RE-WB10/2/72h) ([4]; zebrafish, in vivo): 0.10

More lines, main results first:

- AUC-RoB IMM (AUC0.25–72h) [1]: 0 RFU × 10^7
- AUC-WB IMM (AUC0.25–72h) [1]: 0 RFU × 10^7
- AUC-Yolk IMM (AUC0.25–72h) [1]: 0 RFU × 10^7
- RD (IY), Relative Distribution [3]: 0.19
- AUC-RoB IY (AUC0.25–72h) [3, 5]: 1.02 RFU × 10^7
- AUC-WB IY (AUC0.25–72h) [3, 6]: 5.45 RFU × 10^7
- AUC-Yolk IY (AUC0.25–72h) [3, 7]: 4.42 RFU × 10^7
- RE-WB (Relative Exposure RE-WB10/2/72h) ([4]; zebrafish, in vivo): 0
Molecule: C#CCNC(=O)CCCCC[N+]1=C(C=CC=CC=C2N(C)c3ccc4c(S(=O)(=O)[O-])cc(S(=O)(=O)[O-])cc4c3C2(C)C)C(C)(C)c2c1ccc1c(S(=O)(=O)[O-])cc(S(=O)(=O)[O-])cc21.[K+].[K+].[K+] [S-CY5.5A, S-Cyanine 5.5]
- Log D [2]: −1.68
- localization of the dye after IY microinjection [3]: stayed localized to the microinjection site

- AUC-RoB IMM (AUC0.25–72h) [1]: 2.67 RFU × 10^7
- AUC-WB IMM (AUC0.25–72h) [1]: 4.56 RFU × 10^7
- AUC-Yolk IMM (AUC0.25–72h) [1]: 1.89 RFU × 10^7
- accumulation in the gastrointestinal system [3]: accumulation
- RD (IY), Relative Distribution [3]: 0.24
- AUC-RoB IY (AUC0.25–72h) [3, 5]: 7.65 RFU × 10^7
- AUC-WB IY (AUC0.25–72h) [3, 6]: 31.4 RFU × 10^7
- AUC-Yolk IY (AUC0.25–72h) [3, 7]: 23.8 RFU × 10^7
- RE-WB (Relative Exposure RE-WB10/2/72h) ([4]; zebrafish, in vivo): 0.15
Molecule: C#CCNC(=O)CCCCCN1C(=CC=CC2=[N+](C)c3ccc(S(=O)(=O)[O-])cc3C2(C)C)C(C)(C)c2cc(S(=O)(=O)[O-])ccc21.[K+] [S-CY3A, S-Cyanine 3]
- Log D [2]: −1.96
- localization of the dye after IY microinjection [3]: stayed localized to the microinjection site

- AUC-RoB IMM (AUC0.25–72h) [1]: 0 RFU × 10^7
- AUC-WB IMM (AUC0.25–72h) [1]: 0 RFU × 10^7
- AUC-Yolk IMM (AUC0.25–72h) [1]: 0 RFU × 10^7
- RD (IY), Relative Distribution [3]: 0.18
- AUC-RoB IY (AUC0.25–72h) [3, 5]: 1.67 RFU × 10^7
- AUC-WB IY (AUC0.25–72h) [3, 6]: 9.49 RFU × 10^7
- AUC-Yolk IY (AUC0.25–72h) [3, 7]: 7.82 RFU × 10^7
- RE-WB (Relative Exposure RE-WB10/2/72h) ([4]; zebrafish, in vivo): 0
Molecule: S-Cyanine 5A [S-CY5A]
- Log D [2]: −0.72
- localization of the dye after IY microinjection [3]: stayed localized to the microinjection site
